{"source": "paper PMC4049391", "about": "“Cadmium exposure and sulfate limitation reveal differences in the transcriptional control of three sulfate transporter (Sultr1;2) genes in Brassica juncea” (BMC Plant Biology, 2014)", "biological_target": "T1, AtSultr2;1 (Arabidopsis thaliana, UniProt O04722)", "T1 construct": "gene SULTR2; full-length ORF from Arabidopsis root RNA in pESC-TRP (GAL10 promoter), expressed in Saccharomyces cerevisiae CP154-7A", "T1 sequence (O04722 1-677)": "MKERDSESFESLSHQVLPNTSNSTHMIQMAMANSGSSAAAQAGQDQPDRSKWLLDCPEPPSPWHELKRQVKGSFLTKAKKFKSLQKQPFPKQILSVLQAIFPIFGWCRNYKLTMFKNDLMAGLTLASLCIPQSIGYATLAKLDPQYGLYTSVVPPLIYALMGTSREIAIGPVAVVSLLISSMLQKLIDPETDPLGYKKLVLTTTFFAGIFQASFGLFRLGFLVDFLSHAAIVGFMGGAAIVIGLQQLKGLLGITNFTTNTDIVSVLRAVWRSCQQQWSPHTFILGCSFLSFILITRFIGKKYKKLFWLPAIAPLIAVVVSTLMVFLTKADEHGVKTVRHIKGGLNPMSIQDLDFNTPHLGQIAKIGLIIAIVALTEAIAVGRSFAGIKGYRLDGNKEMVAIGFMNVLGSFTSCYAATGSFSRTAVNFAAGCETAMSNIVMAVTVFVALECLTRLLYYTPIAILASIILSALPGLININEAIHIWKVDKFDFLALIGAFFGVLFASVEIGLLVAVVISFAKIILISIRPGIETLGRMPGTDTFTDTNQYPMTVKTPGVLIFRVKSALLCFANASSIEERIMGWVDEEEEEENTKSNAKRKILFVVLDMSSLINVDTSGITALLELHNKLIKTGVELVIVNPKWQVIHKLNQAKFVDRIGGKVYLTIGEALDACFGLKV", "experiment": "growth rate of complemented yeast versus sulfate, Michaelis-Menten fit", "type": "cell-based", "details": "growth constant as estimate of apparent Km; sulfate 0-3 mM as sole sulfur source, 28°C; yeast CP154-7A"}
{"smiles": "O=S(=O)(O)O", "note": "[sulfate]", "values": [{"measurement": "kG", "value": "Estimation of the growth constant (kG) for sulfate"}]}
